Patent publication US20240384350A1, “METHODS OF TREATING CANCER WITH KINASE INHIBITORS” (BOARD OF REGENTS, THE UNIVERSITY OF TEXAS SYSTEM, priority 2021, published 2024)

Experiments:
Assay in all cases: Ba/F3 drug screening, Cell Titer Glo, IC50 Mut/WT
Assay type in all cases: cell-based
EGFR L833V = biological target: T1, EGFR L833V (Homo sapiens, UniProt P00533, L833V); settings: Classical-Like, 72 hours
T1 construct: expressed in transfected cells; host or cells: Ba/F3 cells, retroviral pBabe-Puro vector

EGFR K754E = biological target: T2, EGFR K754E (Homo sapiens, UniProt P00533, K754E); settings: Classical-Like, 72 hours
T2 construct: expressed in transfected cells; host or cells: Ba/F3 cells, retroviral pBabe-Puro vector
Method: (§1) Data represent the ratio of the IC50 value for a given TKI for cells with a classical-like EGFR mutation to the IC50 value for cells with wildtype EGFR.
(§2) Ba/F3 cell generation, drug screening, and IC50 approximations. Ba/F3 cells were obtained as a gift from Dr. Gordon Mills (MD Anderson Cancer Center), and maintained in RPMI (Sigma) containing 10% FBS, 1% penicillin/streptomycin, and 10 ng/ml recombinant mIL-3 (R&D Biosystems). To establish stable Ba/F3 cell lines, Ba/F3 cells were transduced with retroviruses containing mutant EGFR plasmids for 12-24 hours.
(§3) After 48-72 hours of transduction, 2 μg/ml puromycin (Invitrogen) was added to Ba/F3 cell lines in complete RPMI. To select for EGFR positive cell lines, cells were stained with PE-EGFR (Biolegend) and sorted by FACS. After sorting, EGFR positive cells were maintained in RPMI containing 10% FBS, 1% penicillin/streptomycin, and 1 ng/ml EGF to support cell viability. […] Shortly, cells were plated in 384-well plates (Greiner Bio-One) at 2000-3000 cells per well in technical triplicate. Seven different concentrations of TKIs or DMSO vehicle were added to reach a final volume of 40 μL per well. After 72 hours, 11 μL of Cell Titer Glo (Promega) was added to each well. Plates were incubated for a minimum of 10 minutes, and bioluminescence was determined using a FLUOstar OPTIMA plate reader (BMG LABTECH). Raw bioluminescence values were normalized to DMSO control treated cells, and values were plotted in GraphPad Prism. […] Drug screens were performed in technical triplicate on each plate and either duplicate or triplicate biological replicates.

EGFR S811F = biological target: T3, EGFR S811F (Homo sapiens, UniProt P00533, S811F); settings: Classical-Like, 72 hours
T3 construct: expressed in transfected cells; host or cells: Ba/F3 cells, retroviral pBabe-Puro vector (vector made by GeneScript from EGFR WT)
Method: as §1, §2, §3

EGFR A763insLQEA = biological target: T4, EGFR A763insLQEA (Homo sapiens, UniProt P00533, INS763LQEA); settings: Classical-Like, 72 hours
T4 construct: expressed in transfected cells; host or cells: Ba/F3 cells, retroviral pBabe-Puro vector
Method: as §1, §2, §3

EGFR D761N = biological target: T5, EGFR D761N (Homo sapiens, UniProt P00533, D761N); settings: Classical-Like, 72 hours
T5 construct: expressed in transfected cells; host or cells: Ba/F3 cells, retroviral pBabe-Puro vector

EGFR A767insASV = biological target: T6, EGFR A767insASV (Homo sapiens, UniProt P00533, DUP767-769); settings: Ex20, 72 hours
T6 construct: expressed in transfected cells; host or cells: Ba/F3 cells, retroviral pBabe-Puro vector
Method: (§4) Data represent the ratio of the IC50 value for a given TKI for cells with an ex20ins EGFR mutation to the IC50 value for cells with wildtype EGFR.
as §2
(§5) After 48-72 hours of transduction, 2 μg/ml puromycin (Invitrogen) was added to Ba/F3 cell lines in complete RPMI. To select for EGFR positive cell lines, cells were stained with PE-EGFR (Biolegend) and sorted by FACS. After sorting, EGFR positive cells were maintained in RPMI containing 10% FBS, 1% penicillin/streptomycin, and 1 ng/ml EGF to support cell viability. Drug screening was performed as previously described^41,42. Shortly, cells were plated in 384-well plates (Greiner Bio-One) at 2000-3000 cells per well in technical triplicate. Seven different concentrations of TKIs or DMSO vehicle were added to reach a final volume of 40 μL per well. After 72 hours, 11 μL of Cell Titer Glo (Promega) was added to each well. Plates were incubated for a minimum of 10 minutes, and bioluminescence was determined using a FLUOstar OPTIMA plate reader (BMG LABTECH). Raw bioluminescence values were normalized to DMSO control treated cells, and values were plotted in GraphPad Prism. […] Drug screens were performed in technical triplicate on each plate and either duplicate or triplicate biological replicates. […] Statistical differences between groups were determined by ANOVA as described in the figure legends.

EGFR S768dupSVD = biological target: T7, EGFR S768dupSVD (Homo sapiens, UniProt P00533, DUP768-770); settings: Ex20, 72 hours
T7 construct: expressed in transfected cells; host or cells: Ba/F3 cells, retroviral pBabe-Puro vector
Method: as §4, §2, §5

EGFR D770insNPG = biological target: T8, EGFR D770insNPG (Homo sapiens, UniProt P00533, INS770NPG); settings: Ex20, 72 hours
T8 construct: expressed in transfected cells; host or cells: Ba/F3 cells, retroviral pBabe-Puro vector
Method: as §4, §2, §5

EGFR H773insNPH = biological target: T9, EGFR H773insNPH (Homo sapiens, UniProt P00533, INS773NPH); settings: Ex20, 72 hours
T9 construct: expressed in transfected cells; host or cells: Ba/F3 cells, retroviral pBabe-Puro vector
Method: as §4, §2, §5

EGFR N771dupN = biological target: T10, EGFR N771dupN (Homo sapiens, UniProt P00533, DUP771-771); settings: Ex20, 72 hours
T10 construct: expressed in transfected cells; host or cells: Ba/F3 cells, retroviral pBabe-Puro vector

EGFR T790M = biological target: T11, EGFR T790M (Homo sapiens, UniProt P00533, T790M); settings: T790M-like-3S, 72 hours
T11 construct: expressed in transfected cells; host or cells: Ba/F3

EGFR G719S T790M = biological target: T12, EGFR G719S T790M (Homo sapiens, UniProt P00533, G719S/T790M); settings: T790M-like-3S, 72 hours
T12 construct: expressed in transfected cells; host or cells: Ba/F3
Method: (§6) Data represent the ratio of the IC50 value for a given TKI for cells with a T790M-like-3S EGFR mutation to the IC50 value for cells with wildtype EGFR.
as §2
(§7) After 48-72 hours of transduction, 2 μg/ml puromycin (Invitrogen) was added to Ba/F3 cell lines in complete RPMI. To select for EGFR positive cell lines, cells were stained with PE-EGFR (Biolegend) and sorted by FACS. After sorting, EGFR positive cells were maintained in RPMI containing 10% FBS, 1% penicillin/streptomycin, and 1 ng/ml EGF to support cell viability. Drug screening was performed as previously described^41,42. Shortly, cells were plated in 384-well plates (Greiner Bio-One) at 2000-3000 cells per well in technical triplicate. Seven different concentrations of TKIs or DMSO vehicle were added to reach a final volume of 40 μL per well. After 72 hours, 11 μL of Cell Titer Glo (Promega) was added to each well. Plates were incubated for a minimum of 10 minutes, and bioluminescence was determined using a FLUOstar OPTIMA plate reader (BMG LABTECH). Raw bioluminescence values were normalized to DMSO control treated cells, and values were plotted in GraphPad Prism. […] Drug screens were performed in technical triplicate on each plate and either duplicate or triplicate biological replicates.

EGFR S768I/T790M = biological target: T13, EGFR S768I/T790M (Homo sapiens, UniProt P00533, S768I/T790M); settings: T790M-like-3S, 72 hours
T13 construct: expressed in transfected cells; host or cells: Ba/F3
Method: as §6, §2, §7

EGFR L858R T790M V843I = biological target: T14, EGFR L858R T790M V843I (Homo sapiens, UniProt P00533, L858R/T790M/V843I); settings: T790M-like-3S, 72 hours
T14 construct: expressed in transfected cells; host or cells: Ba/F3

EGFR G724S T790M = biological target: T15, EGFR G724S T790M (Homo sapiens, UniProt P00533, G724S/T790M); settings: T790M-like-3R, 72 hours
T15 construct: expressed in transfected cells; host or cells: Ba/F3

EGFR Ex19del/T790M/L792H = biological target: T16, EGFR Ex19del/T790M/L792H (Homo sapiens, UniProt P00533, DEL746-750/L792H/T790M); settings: T790M-like-3R, 72 hours
T16 construct: expressed in transfected cells; host or cells: Ba/F3

EGFR E709A G719S = biological target: T17, EGFR E709A G719S (Homo sapiens, UniProt P00533, E709A/G719S); settings: Ba/F3 cells, EGFR E709A G719S (PACC), Mut/WT
T17 construct: expressed in transfected cells; host or cells: Ba/F3
Method: (§8) Data represent the ratio of the IC50 value for a given TKI for cells with a PACC EGFR mutation to the IC50 value for cells with wildtype EGFR.
as §2, §7

EGFR E709A = biological target: T18, EGFR E709A (Homo sapiens, UniProt P00533, E709A); settings: Ba/F3 cells, EGFR E709A (PACC), Mut/WT
T18 construct: expressed in transfected cells; host or cells: Ba/F3

EGFR E709K = biological target: T19, EGFR E709K (Homo sapiens, UniProt P00533, E709K); settings: Ba/F3 cells, EGFR E709K (PACC), Mut/WT
T19 construct: expressed in transfected cells; host or cells: Ba/F3

EGFR G719A = biological target: T20, EGFR G719A (Homo sapiens, UniProt P00533, G719A); settings: Ba/F3 cells, EGFR G719A (PACC), Mut/WT
T20 construct: expressed in transfected cells; host or cells: Ba/F3

EGFR G724S = biological target: T21, EGFR G724S (Homo sapiens, UniProt P00533, G724S); settings: Ba/F3 cells, EGFR G724S (PACC), Mut/WT
T21 construct: expressed in transfected cells; host or cells: Ba/F3

EGFR L747P = biological target: T22, EGFR L747P (Homo sapiens, UniProt P00533, L747P); settings: Ba/F3 cells, EGFR L747P (PACC), Mut/WT
T22 construct: expressed in transfected cells; host or cells: Ba/F3

EGFR V769L = biological target: T23, EGFR V769L (Homo sapiens, UniProt P00533, V769L); settings: Ba/F3 cells, EGFR V769L (PACC), Mut/WT
T23 construct: expressed in transfected cells; host or cells: Ba/F3
Method: as §8, §2, §7

EGFR V774M = biological target: T24, EGFR V774M (Homo sapiens, UniProt P00533, V774M); settings: Ba/F3 cells, EGFR V774M (PACC), Mut/WT
T24 construct: host or cells: Ba/F3

EGFR Ex19del/L792H = biological target: T25, EGFR Ex19del/L792H (Homo sapiens, UniProt P00533, DEL746-750/L792H); settings: Ba/F3 cells, EGFR Ex19del/L792H (PACC), Mut/WT
T25 construct: expressed in transfected cells; host or cells: Ba/F3
Method: as §8, §2, §7

EGFR Ex19del L718V = biological target: T26, EGFR Ex19del L718V (Homo sapiens, UniProt P00533, DEL746-750/L718V); settings: Ba/F3 cells, EGFR Ex19del L718V (PACC), Mut/WT
T26 construct: expressed in transfected cells; host or cells: Ba/F3

EGFR L858R G724S = biological target: T27, EGFR L858R G724S (Homo sapiens, UniProt P00533, G724S/L858R); settings: Ba/F3 cells, EGFR L858R G724S (PACC), Mut/WT
T27 construct: expressed in transfected cells; host or cells: Ba/F3 (retroviral transduction, pBabe-Puro based vectors)
Method: as §8, §2, §7

EGFR Ex19del T854I = biological target: T28, EGFR Ex19del T854I (Homo sapiens, UniProt P00533, DEL746-750/T854I); settings: Ba/F3 cells, EGFR Ex19del T854I (PACC), Mut/WT
T28 construct: expressed in transfected cells; host or cells: Ba/F3 (retroviral transduction, pBabe-Puro based vectors)

C=CC(=O)Nc1cc(Nc2ncc(C(=O)OC(C)C)c(-c3cn(C)c4ccccc34)n2)c(OC)cc1N(C)CCN(C)C [TAK-788 (mobocertinib), mobocertinib]
ratio of IC50 for cells with mutant EGFR to IC50 for cells with wildtype EGFR (Mut/WT) (EGFR L833V): 0.1367 | ratio of IC50 for cells with mutant EGFR to IC50 for cells with wildtype EGFR (Mut/WT) (EGFR K754E): 0.1738 | ratio of IC50 for cells with mutant EGFR to IC50 for cells with wildtype EGFR (Mut/WT) (EGFR S811F): 0.003195 | ratio of IC50 for cells with mutant EGFR to IC50 for cells with wildtype EGFR (Mut/WT) (EGFR A763insLQEA): 0.03374 | ratio of IC50 for cells with mutant EGFR to IC50 for cells with wildtype EGFR (Mut/WT) (EGFR D761N): 0.363 | ratio of IC50 for cells with mutant EGFR to IC50 for cells with wildtype EGFR (Mut/WT) (EGFR A767insASV): 1.553 | ratio of IC50 for cells with mutant EGFR to IC50 for cells with wildtype EGFR (Mut/WT) (EGFR S768dupSVD): 0.2515 | ratio of IC50 for cells with mutant EGFR to IC50 for cells with wildtype EGFR (Mut/WT) (EGFR D770insNPG): 1.211 | ratio of IC50 for cells with mutant EGFR to IC50 for cells with wildtype EGFR (Mut/WT) (EGFR H773insNPH): 0.2952 | ratio of IC50 for cells with mutant EGFR to IC50 for cells with wildtype EGFR (Mut/WT) (EGFR N771dupN): 0.8508 | ratio of IC50 for cells with mutant EGFR to IC50 for cells with wildtype EGFR (Mut/WT) (EGFR T790M): 1.315 | ratio of IC50 for cells with mutant EGFR to IC50 for cells with wildtype EGFR (Mut/WT) (EGFR G719S T790M): 1.302 | ratio of IC50 for cells with mutant EGFR to IC50 for cells with wildtype EGFR (Mut/WT) (EGFR S768I/T790M): 10.82 | ratio of IC50 for cells with mutant EGFR to IC50 for cells with wildtype EGFR (Mut/WT) (EGFR L858R T790M V843I): 1.649 | ratio of IC50 for cells with mutant EGFR to IC50 for cells with wildtype EGFR (Mut/WT) (EGFR G724S T790M): 48.31 | ratio of IC50 for cells with mutant EGFR to IC50 for cells with wildtype EGFR (Mut/WT) (EGFR Ex19del/T790M/L792H): 0.885 | ratio of the IC50 value for cells with a PACC EGFR mutation to the IC50 value for cells with wildtype EGFR (EGFR E709A G719S): 1.298 | ratio of the IC50 value for cells with a PACC EGFR mutation to the IC50 value for cells with wildtype EGFR (EGFR E709A): 1.583 | ratio of the IC50 value for cells with a PACC EGFR mutation to the IC50 value for cells with wildtype EGFR (EGFR E709K): 10.68 | ratio of the IC50 value for cells with a PACC EGFR mutation to the IC50 value for cells with wildtype EGFR (EGFR G719A): 1.676 | ratio of the IC50 value for cells with a PACC EGFR mutation to the IC50 value for cells with wildtype EGFR (EGFR G724S): 108.6 | ratio of the IC50 value for cells with a PACC EGFR mutation to the IC50 value for cells with wildtype EGFR (EGFR L747P): 5.991 | ratio of the IC50 value for cells with a PACC EGFR mutation to the IC50 value for cells with wildtype EGFR (EGFR V769L): 3.454 | ratio of the IC50 value for cells with a PACC EGFR mutation to the IC50 value for cells with wildtype EGFR (EGFR V774M): 1.453 | ratio of the IC50 value for cells with a PACC EGFR mutation to the IC50 value for cells with wildtype EGFR (EGFR Ex19del/L792H): 6.547 | ratio of the IC50 value for cells with a PACC EGFR mutation to the IC50 value for cells with wildtype EGFR (EGFR Ex19del L718V): 1.296 | ratio of the IC50 value for cells with a PACC EGFR mutation to the IC50 value for cells with wildtype EGFR (EGFR L858R G724S): 0.01089 | ratio of the IC50 value for cells with a PACC EGFR mutation to the IC50 value for cells with wildtype EGFR (EGFR Ex19del T854I): 4.794
